Where a name gives a salt, the structure may show the parent alone. Read-outs that look alike come from different tables or passages of the source.
How the values were obtained:
[1] = Pharmacokinetics of vonoprazan and MI in rats with or without inhibitor pretreatment; assay type: in vivo, Sprague-Dawley rats; conditions: for AUC(0-inf) / AUC(0-t) / Cmax / Tmax / CL/F / MRT last / MRT inf / Vd/F / half-life: male, Sprague-Dawley, rat, plasma, po, 2 mg/kg; for CL/F: read-out: CLz/F (converted); for MRT last: read-out: MRT(0-t); for MRT inf: read-out: MRT(0-∞); for Vd/F: read-out: Vz/F; for half-life: read-out: t1/2z (converted)
Experimental: The Experimental Animal Research Center of Wenzhou Medical University provided specific pathogen-free (SPF) Sprague-Dawley rats (male, 350 ± 20 g, 3 months old). This research was conducted following the principles of the Basel Declaration. […] After one week of rearing in the new environment and fasting overnight, the drug could be gavaged.
Rats were randomly divided into three groups (n = 6). […] After 7 days, on the seventh day, all groups had gavage at a single dosage of 2 mg/kg vonoprazan.
Centrifugation at 4,000 rpm for 10 min was performed to obtain 100 µL of plasma, to which was added 200 µL of acetonitrile and 20 µL of diazepam IS. After vortex mixing and centrifugation at 13,000 rpm for 5 min, 5 µL of supernatant was obtained for analysis by UPLC-MS/MS.
(§1) The concentrations of vonoprazan and MI that were detected by UPLC-MS/MS were applied to GraphPad 7.0 (GraphPad Software Inc., United States) to calculate IC50 and depict plasma concentration-time curves and Lineweaver–Burk and Dixon plots. The pharmacokinetic parameters of the compartment analysis were calculated using DAS (version 3.2.8; The People’s Hospital of Lishui) and expressed as mean ± standard deviation. The t-test was carried out by SPSS 25.0 (SPSS Inc., United States) to compare those parameters. p value < 0.05 was considered statistically significant.

[2] = system: vonoprazan metabolism (MI formation) in human liver microsomes; experiment: in vitro; conditions: pH 7.4
[3] = system: vonoprazan metabolism (MI formation) in rat liver microsomes; experiment: Inhibition of vonoprazan metabolism (MI formation) in rat liver microsome incubation; assay type: in vitro ADME; conditions: rat, rat liver microsomes, pH 7.4, probe vonoprazan (10 µM), metabolite MI measured; RLMs, 10 µM vonoprazan, MI formation
Experimental: (§2) Eleven common-used cardiovascular drugs were chosen to detect their possible inhibition effect on vonoprazan. […] After preincubation at 37°C for 5 min in a shaking water bath, 20 mM NADPH was added to initiate the reaction, which lasted 30 min and was stopped with […] of acetonitrile. The mixture was vortexed after adding 20 µL of diazepam and then centrifugated at 13,000 rpm for 5 min. A 2 µL aliquot of the final supernatant was injected into the UPLC–MS/MS system for analysis. The relative inhibition was calculated according to the relative MI decrease compared to the control (vonoprazan naturally metabolized in RLMs). […] The same procedures were performed. Then, an inhibition mechanism experiment was conducted for further exploration. […] Both inhibitor and substrate were added to the incubation system described above. Every concentration match had three parallels. The MI concentration was detected using the same conditions to depict the Lineweaver–Burk and Dixon plots.
as §1

[4] = system: vonoprazan metabolism in rat liver microsomes (RLMs); experiment: as above; assay type: in vitro ADME
Experimental: as §2, §1

[5] = amlodipine-pretreated group vs control group, rats
[6] = Amlodipine group (10 mg/kg amlodipine 7 days), single gavage 2 mg/kg vonoprazan, rat plasma
[7] = Control group (CMC-Na 7 days), single gavage 2 mg/kg vonoprazan, rat plasma

For `O=C(O)c1cc(-c2ccccc2F)n(S(=O)(=O)c2cccnc2)c1` [MI, 5-(2-fluorophenyl)-1-(pyridin-3-ylsulfonyl)-1H-pyrrole-3-carboxylic acid], the “fall of CLz/F” value [1, 5] was 38%, the “fall of Vz/F” value [1, 5] was 57% and the “increase of AUC” value [1, 5] was 1.6 fold. For the same compound, the “increase of MRT (0-t)” value [1, 5] was 1.4 fold, the “increase of MRT (0-∞)” value [1, 5] was 1.2 fold and the AUC(0-inf) [1, 6] was 2580 ± 450 ng·h/mL. For the same compound, the AUC(0-t) [1, 6] was 2550 ± 459 ng·h/mL, the Cmax [1, 6] was 836 ± 176 ng/mL and the Tmax [1, 6] was 1.58 ± 0.67 h. It also gave a CL/F [1, 6] of 13.2 mL/min/kg, an MRT last [1, 6] of 2.92 ± 0.19 h and an MRT inf [1, 6] of 3.11 ± 0.31 h. It also gave a Vd/F [1, 6] of 2.25 ± 1.11 L/kg, a half-life [1, 6] of 1.91 ± 0.76 h and an AUC(0-inf) [1, 7] of 1570 ± 189 ng·h/mL. The AUC(0-t) [1, 7] was 1540 ± 175 ng·h/mL, the Cmax [1, 7] was 766 ± 85.1 ng/mL and the Tmax [1, 7] was 1 h. For the same compound, the CL/F [1, 7] was 21.5 mL/min/kg, the MRT last [1, 7] was 2.13 ± 0.14 h and the MRT inf [1, 7] was 2.44 ± 0.26 h. The Vd/F [1, 7] was 5.28 ± 2.5 L/kg and the half-life [1, 7] was 2.91 ± 1.51 h.

In the case of `CCOC(=O)C1=C(COCCN)NC(C)=C(C(=O)OC)C1c1ccccc1Cl` (centres unmarked) [Amlodipine, amlodipine besylate], the IC50 at 30 min [2] is reported as 7.2 µM, the IC50 at 30 min [3] is reported as 17 µM and the “inhibition mechanism on vonoprazan metabolism” value ([4]; RLMs and HLMs, Lineweaver–Burk and Dixon plots) is reported as “primarily competitive with some non-competitive inhibition”.

For `COc1ccc([C@@H]2Sc3ccccc3N(CCN(C)C)C(=O)[C@@H]2OC(C)=O)cc1` [Diltiazem, diltiazem hydrochloride], the “inhibition effect on vonoprazan in preliminary in vitro evaluation” value ([4]; RLMs, roughly 100 µM drug) was “slightly increased inhibition effects”.

For `CNCc1cc(-c2ccccc2F)n(S(=O)(=O)c2cccnc2)c1` [Vonoprazan, vonoprazan], the “MRT(0-∞)” value [1, 6] was 3.06 ± 0.38 h, the “decrease of CLz/F” value [1, 5] was “approximately by half” and the “decrease of Vz/F” value [1, 5] was “approximately by half”. For the same compound, the “increase of AUC” value [1, 5] was “nearly twice”, the “increase of Cmax” value [1, 5] was “nearly twice” and the “increase of Tmax” value [1, 5] was “nearly twice”. The AUC(0-inf) [1, 6] was 59 ± 20.9 ng·h/mL, the AUC(0-t) [1, 6] was 58.5 ± 21.1 ng·h/mL and the Cmax [1, 6] was 19 ± 8.3 ng/mL. The Tmax [1, 6] was 1.67 ± 0.52 h, the CL/F [1, 6] was 614 mL/min/kg and the MRT last [1, 6] was 2.93 ± 0.3 h. For the same compound, the Vd/F [1, 6] was 95.5 ± 51.3 L/kg, the half-life [1, 6] was 1.73 ± 0.65 h and the AUC(0-inf) [1, 7] was 29.1 ± 5.31 ng·h/mL. It also gave an AUC(0-t) [1, 7] of 28.8 ± 5.14 ng·h/mL, a Cmax [1, 7] of 10.2 ± 1.88 ng/mL and a Tmax [1, 7] of 0.75 ± 0.27 h. It also gave a CL/F [1, 7] of 1180 mL/min/kg, an MRT last [1, 7] of 2.72 ± 0.09 h and an MRT inf [1, 7] of 2.87 ± 0.17 h. The Vd/F [1, 7] was 190 ± 41.6 L/kg and the half-life [1, 7] was 1.89 ± 0.37 h.

From publication PMC9424819, “Evaluation of commonly used cardiovascular drugs in inhibiting vonoprazan metabolism in vitro and in vivo” (Frontiers in Pharmacology, 2022)
